From patent US20110092558A1, “NOVEL MICROBIOCIDES” (SYNGENTA CROP PROTECTION, INC., priority 2008, published 2011)

How the values were obtained:
Botrytis cinerea = test: Action against Botrytis cinerea - fungal growth assay; assay type: cell-based; conditions: 0.02% active ingredient, PDB nutrient broth, 24° C., measured photometrically after 3-4 days
Method: (§1) Action Against Botrytis cinerea—Fungal Growth Assay Conidia of the fungus from cryogenic storage are directly mixed into nutrient broth (PDB potato dextrose broth). After placing a (DMSO) solution of the test compounds (0.02% active ingredient) into a microtiter plate (96-well format) the nutrient broth containing the fungal spores is added. The test plates are incubated at 24° C. and the inhibition of growth is measured photometrically after 3-4 days. The activity of a compound is expressed as fungal growth inhibition. Compounds 1.001, 1.004, 1.052, 1.134, 1.182 and 1.197 show good activity in this test (at least 50% inhibition).

Leptosphaeria nodorum = test: Action against Leptosphaeria nodorum (Septoria nodorum; glume blotch) on wheat leaf segments, preventive; assay type: in vivo; conditions: Parastagonospora nodorum, foliar, 96 h; wheat leaf segments sprayed with 0.02% active ingredient; assessed 4 days after inoculation; read-out: preventive fungicidal activity (inhibition)
Method: (§2) Action Against Leptosphaeria nodorum (Septoria nodorum; Glume Blotch) on Wheat Wheat leaf segments are placed on agar in multiwell plates (24-well format) and sprayed with test solutions (0.02% active ingredient). After drying, the leaf disks are inoculated with a spore suspension of the fungus. After appropriate incubation the activity of a compound is assessed 4 days after inoculation as preventive fungicidal activity. Compounds 1.001, 1.004, 1.069, 1.134, and 1.182 show good activity in this test (at least 50% inhibition).

[1] = system: Erysiphe graminis f.sp. Tritici; test: Action against Erysiphe graminis f.sp. tritici (wheat powdery mildew), wheat leaf segments, preventive; assay type: in vivo; conditions: Blumeria graminis, foliar, 168 h; wheat leaf segments sprayed with 0.02% active ingredient; assessed 7 days after inoculation; read-out: preventive fungicidal activity (inhibition)
Method: as §2, with “Against Erysiphe graminis f.sp. Tritici (Wheat Powdery Mildew)” for “Against Leptosphaeria nodorum (Septoria nodorum; Glume Blotch) on Wheat”, “assessed 7” for “assessed 4”, “1.004, 1.052,” for “1.004,”

Septoria tritici = test: Action against Septoria tritici - fungal growth assay; assay type: cell-based; conditions: Zymoseptoria tritici; 0.02% active ingredient; PDB nutrient broth, 24° C.; determined photometrically after 72 hrs
Method: as §1, with “Septoria tritici—Fungal” for “Botrytis cinerea—Fungal”, “determined” for “measured”, “72 hrs.” for “3-4 days.”, “1.052, 1.069,” for “1.052,”, “1.134, 1.171,” for “1.134,”

Monographella nivalis = test: Action against Monographella nivalis (snow mould) - fungal growth assay; assay type: cell-based; conditions: 0.02% active ingredient, PDB nutrient broth, 24° C., measured photometrically after 72 hrs
Method: as §1, with “Monographella nivalis (Anamorph: Fusarium nivale, Microdochium nivale; Snow Mould)—Fungal” for “Botrytis cinerea—Fungal”, “DMSO-solution” for “(DMSO) solution”, “72 hrs.” for “3-4 days. The activity of a compound is expressed as fungal growth inhibition.”, “1.052, 1.069,” for “1.052,”, “1.134, 1.171,” for “1.134,”

Pyrenophora teres = test: Action against Pyrenophora teres (net blotch) on barley leaf segments, preventive; assay type: in vivo; conditions: foliar, 96 h, barley leaf segments sprayed with 0.02% active ingredient, assessed 4 days after inoculation, read-out: preventive fungicidal activity (inhibition)
Method: as §2, with “Pyrenophora teres (Net” for “Leptosphaeria nodorum (Septoria nodorum; Glume”, “Barley Barley” for “Wheat Wheat”, “1.004, 1.052,” for “1.004,”, “1.134, 1.171, 1.182” for “1.134,”, “1.197” for “1.182”

Puccinia recondita = test: Curative action against Puccinia recondita (brown rust) on wheat leaf segments; assay type: in vivo; conditions: foliar, wheat leaf segments sprayed with 0.02% active ingredient one day after inoculation, assessed 8 days after inoculation, read-out: curative fungicidal activity (inhibition)
Method: Curative Action Against Puccinia recondita (Brown Rust) on Wheat Wheat leaf segments are placed on agar in multiwell plates (24-well format) and inoculated with a spore suspension of the fungus. One day after inoculation the leaf segments are sprayed with test solutions (0.02% active ingredient). After appropriate incubation the activity of a compound is assessed 8 days after inoculation as curative fungicidal activity. Compounds 1.004 and 1.052 show good activity in this test (at least 50% inhibition).

Mycosphaerella arachidis = test: Action against Mycosphaerella arachidis (early leaf spot of groundnut) - fungal growth assay; assay type: cell-based; conditions: 0.02% active ingredient, PDB nutrient broth, 24° C., measured photometrically after 6-7 days
Method: as §1, with “Mycosphaerella arachidis (Early Leaf Spot of Groundnut Cercospora Arachidicola [Anamorph])—Fungal” for “Botrytis cinerea—Fungal”, “6-7” for “3-4”, “1.052, 1.069,” for “1.052,”, “1.134, 1.171,” for “1.134,”

Measured: inhibition at 0.02 % strength

CC(CCc1c(Cl)cc(Cl)cc1Cl)NC(=O)c1cn(C)nc1C(F)F (stereo not shown) [Compound 1.004, 3-difluoromethyl-1-methyl-1H-pyrazole-4-carboxylic acid [1-methyl-3-(2,4,6-trichloro-phenyl)-propyl]-amide]
≥ 50%: all assays above

CC(CCCc1c(Cl)cc(Cl)cc1Cl)NC(=O)c1cn(C)nc1C(F)F (stereo not shown) [Compound 1.069, 3-difluoromethyl-1-methyl-1H-pyrazole-4-carboxylic acid [1-methyl-4-(2,4,6-trichloro-phenyl)-butyl]-amide]
not listed: Botrytis cinerea | Puccinia recondita
≥ 50%: all other assays above

CC(COCc1c(Cl)cccc1Cl)NC(=O)c1cn(C)nc1C(F)F (stereo not shown) [Compound 1.197, 3-difluoromethyl-1-methyl-1H-pyrazole-4-carboxylic acid [2-(2,6-dichloro-benzyloxy)-1-methyl-ethyl]-amide]
≥ 50%: Botrytis cinerea | Septoria tritici | Monographella nivalis | Pyrenophora teres | Mycosphaerella arachidis
